{"source": "patent US20100035831A1", "about": "“ANTI-WRINKLE AGENT AND ADAM INHIBITOR” (SHISEIDO COMPANY, LTD., priority 2007, published 2010)", "key": {"ADAM": {"tested_on": "ADAM", "test": "Inhibition of PMA-induced TNF-α release from U937 cells as index of ADAM inhibition (ELISA)", "assay_type": "cell-based, human", "conditions": "tested substance 30 μg/mL, 30 min pretreatment, 10 nM PMA for 6 hours", "protocol": "For ADAM inhibiting effect, the TNF-α which is cut out to be released from the membrane of the U937 cell derived from the human lymphoma through the action of the ADAM was used as an index and the inhibiting effect on the TNF-α release was assessed. A new ADAM inhibitor was explored by screening different compounds according to the present method.\nThe U937 cells derived from the human lymphoma were seeded to the 48-well plate adjusting the number of the cells to 1×10^5 cells/0.25 ml and cultured at 37° C. overnight. The medium which contained 30 μg/ml of alkyl glucoside was added and incubated at 37° C. for 30 min. to be pretreated. 10 nM PMA (phorbol ester:12-O-tetradecanoylphorbol-acetate; Sigma P8139) was then added and cultured at 37° C. for 6 hours. After completion of the treatment, the supernatant of the culture was collected, centrifuged and the cell-free supernatant was cryopreserved at −20° C. The assay of the released hTNF-α was performed using the hTNF-α Duo-Set ELISA kit from R & D Ltd. Each supernatant of the culture was diluted 5 folds with the medium, then 100 μl each was added to the 96-well plate and measured according to the protocol of R & D Ltd. The absorbance at 450-570 nm of each well was measured by the measurement kit and concentrations of the samples were obtained from the standard curve. The inhibition rates were calculated according to the following equation wherein A0 is the absorbance of 0% inhibiting control (the medium containing only PMA), A100 is the absorbance of 100% inhibiting control (only the medium) and AS is the absorbance of the sample.\nThe inhibition rate (%)=(A0−AS)/(A0−A100)×100"}, "[1]": {"tested_on": "barrier-destructed wrinkle mouse model", "test": "Wrinkle score by visual judgement in the tape-stripping barrier-destructed wrinkle mouse model", "assay_type": "in vivo, hairless mice (HR-1)", "protocol": "Then, the wrinkle-ameliorating effects of dodecyl β-D-glucoside (GC12), tetradecyl β-D-glucoside (GC14), and hexadecyl β-D-glucoside (GC16) amongst the new ADAM-inhibiting compounds were examined using a barrier-destructed wrinkle mouse model.\n(§1) The tape stripping was performed on the left back of the hairless mice (HR-1, 6 week old male, Hosino experimental animals) 3 times a week for 4 consecutive weeks so that the trans epithelial water loss (measured using a measuring device of water loss MEECO; Meeco Ltd, USA) was 4-8 mg/cm^2/h. Every time immediately after procedures of tape stripping, 100 μl each of the solutions of dodecyl β-D-glucoside, tetradecyl β-D-glucoside, and hexadecyl β-D-glucoside dissolved in the 50% ethanol aqueous solution so that they were 1% were applied on the left back of the mice, and as the negative control, a 50% ethanol aqueous solution (vehicle) were similarly applied. Number n was set as 6 to 7 for each group.\nStates of the wrinkle development after 4 weeks were scored by visual judgement. The assessment criteria of the wrinkle development state was set as “no wrinkle; 0”, “thin wrinkle; 1”, “clear wrinkle; 2”, “deep wrinkle; 3”, and the states were scored to the 0.5.\n(§2) Using the similar method, the wrinkle-inhibiting effect of octadecyl β-D-glucoside (GC18) was also examined."}, "[2]": {"tested_on": "barrier-destructed wrinkle mouse model", "test": "Relative transepidermal water loss (TEWL) in the barrier-destructed wrinkle mouse model", "assay_type": "in vivo, hairless mice (HR-1)", "conditions": "for Relative TEWL (%), left (treated) side based on right (untreated) side: 1% in 50% ethanol, 4 weeks after starting, vehicle group 186% (FIG. 3)", "protocol": "as §1\nFurther, the trans epithelial water loss (TEWL) at the backs of the mice before starting the test and at 4 weeks after starting was also examined. The TEWL values at the left backs on which dodecyl β-D-glucoside, tetradecyl β-D-glucoside, and hexadecyl β-D-glucoside or 50% ethanol aqueous solution (vehicle) were applied after tape stripping procedure as well as the values at the right backs on which nothing was applied were measured by the Vapometer (Technologies Ltd, Kuopio, Finland) two times, respectively. The ratio of the TEWL value for the left side based on the TEWL value of the right side for each individual (the relative TEWL (%)) was obtained and the average value for each group was calculated.\nas §2"}, "[3]": {"tested_on": "fine wrinkles around the human eyes", "test": "Visual judgement of fine wrinkles under the human eye, half face double blind test", "assay_type": "in vivo", "conditions": "0.44% in 30% ethanol", "protocol": "(§3) An aqueous solution of 0.44% dodecyl β-D-glucoside/30% ethanol was successively applied to 16 adult male humans in the 30-40th's (the average age of 42.2) for two months. The dosage was set as 30 μl per application. The solution of 0.44% dodecyl β-D-glucoside/30% ethanol was applied to the lateral angle of and under one eye and 30% ethanol aqueous solution as the vehicle was applied to those of the other eye two times a day.\n(§4) To examine the state of the skin around the eyes before the application and after the application, it was acclimated in a steady temperature and humidity room (23.5° C., 45% humidity) after washing the face and then photo taking of the appearance around the eyes (Nikon digital single lens reflex camera D-100) and the water content measurement of the horny layer (Corneometer, Courage+Khazaka electronic GmbH, Germany) were performed before starting the test and after starting the successive application for two months.\nThen, the visual appreciation judgement was performed by three judging persons."}, "[4]": {"test": "Water content of the horny (corneal) layer around the human eyes (Corneometer)", "assay_type": "in vivo", "conditions": "0.44% in 30% ethanol, two months; vehicle group reduced to 95% of the value before start (FIG. 6)", "protocol": "as §3, §4\nThe rate of the water content value of the corneal layer of the eye, when the value is 100, after successive application for two months based on the water content value of the horny layer of each subject before starting the test (relative water content of the horny layer (%)) was obtained to calculate the average value for each group."}, "[5]": {"conditions": "1% in 50% ethanol, 100 μl on left back after each tape stripping, 3 times a week, after 4 weeks, vehicle group 1.24 (FIG. 2)"}, "[6]": {"conditions": "30 μl two times a day for two months, 16 adult males, versus vehicle-applied side"}}}
{"smiles": "OC[C@H]1O[C@@H](OCc2ccccc2)[C@H](O)[C@@H](O)[C@@H]1O", "note": "[Glucoside compound (B), reference compound]", "values": [{"measurement": "Inhibition rate (%) of TNF-α release", "setting": "ADAM", "value": 3.4, "unit": "%"}]}
{"smiles": "OC[C@H]1O[C@@H](Oc2c[nH]c3ccccc23)[C@H](O)[C@@H](O)[C@@H]1O", "note": "[Glucoside compound (D), reference compound]", "values": [{"measurement": "Inhibition rate (%) of TNF-α release", "setting": "ADAM", "value": "−0.5", "unit": "%"}]}
{"smiles": "CCCCCCCCCCCCCCCCCCO[C@@H]1O[C@H](CO)[C@@H](O)[C@H](O)[C@H]1O", "note": "[Octadecyl β-D-glucoside]", "values": [{"measurement": "Inhibition rate (%) of TNF-α release", "setting": "ADAM", "value": 62, "unit": "%"}, {"measurement": "Average wrinkle score by visual judgement (0 no wrinkle to 3 deep wrinkle)", "setting": "[1]; similar method, vehicle group 1.55 (FIG. 4)", "value": 0.54}, {"measurement": "Relative TEWL (%)", "setting": "[2]; similar method, vehicle group 208% (FIG. 5)", "value": 124, "unit": "%"}]}
{"smiles": "OC[C@H]1O[C@@H](OCCc2ccccc2)[C@H](O)[C@@H](O)[C@@H]1O", "note": "[Glucoside compound (E), reference compound]", "values": [{"measurement": "Inhibition rate (%) of TNF-α release", "setting": "ADAM", "value": "−51.83", "unit": "%"}]}
{"smiles": "CCCCCCCCCCCCCCO[C@@H]1O[C@H](CO)[C@@H](O)[C@H](O)[C@H]1O", "note": "[Tetradecyl β-D-glucoside]", "values": [{"measurement": "Inhibition rate (%) of TNF-α release", "setting": "ADAM", "value": 109, "unit": "%"}, {"measurement": "Average wrinkle score by visual judgement (0 no wrinkle to 3 deep wrinkle)", "setting": "[1]; [5]", "value": 0.63}, {"measurement": "Relative TEWL (%), left (treated) side based on right (untreated) side", "setting": "[2]", "value": 130, "unit": "%"}]}
{"smiles": "CCCCCCCCCCCCCCCCO[C@@H]1O[C@H](CO)[C@@H](O)[C@H](O)[C@H]1O", "note": "[Hexadecyl β-D-glucoside]", "values": [{"measurement": "Inhibition rate (%) of TNF-α release", "setting": "ADAM", "value": 76, "unit": "%"}, {"measurement": "Average wrinkle score by visual judgement (0 no wrinkle to 3 deep wrinkle)", "setting": "[1]; [5]", "value": 0.89}, {"measurement": "Relative TEWL (%), left (treated) side based on right (untreated) side", "setting": "[2]", "value": 164, "unit": "%"}]}
{"smiles": "CCCCCCCCCCCO[C@@H]1O[C@H](CO)[C@@H](O)[C@H](O)[C@H]1O", "note": "[Undecyl β-D-glucoside]", "values": [{"measurement": "Inhibition rate (%) of TNF-α release", "setting": "ADAM", "value": 98, "unit": "%"}]}
{"smiles": "CCCCCCCCCCO[C@@H]1O[C@H](CO)[C@@H](O)[C@H](O)[C@H]1O", "note": "[Decyl β-D-glucoside]", "values": [{"measurement": "Inhibition rate (%) of TNF-α release", "setting": "ADAM", "value": 56, "unit": "%"}]}
{"smiles": "CCCCCCCCCCCCO[C@H]1O[C@H](CO)[C@@H](O)[C@H](O)[C@H]1O", "note": "[Dodecyl α-D-glucoside]", "values": [{"measurement": "Inhibition rate (%) of TNF-α release", "setting": "ADAM", "value": 91, "unit": "%"}]}
{"smiles": "OC[C@H]1O[C@@H](Oc2cccc3cccnc23)[C@H](O)[C@@H](O)[C@@H]1O", "note": "[Glucoside compound (C), reference compound]", "values": [{"measurement": "Inhibition rate (%) of TNF-α release", "setting": "ADAM", "value": 4.8, "unit": "%"}]}
{"smiles": "CCCCCCCCCCCCO[C@@H]1O[C@H](CO)[C@@H](O)[C@H](O)[C@H]1O", "note": "[Dodecyl β-D-glucoside]", "values": [{"measurement": "Inhibition rate (%) of TNF-α release", "setting": "ADAM", "value": 88, "unit": "%"}, {"measurement": "Average wrinkle score by visual judgement (0 no wrinkle to 3 deep wrinkle)", "setting": "[1]; [5]", "value": 0.58}, {"measurement": "Relative TEWL (%), left (treated) side based on right (untreated) side", "setting": "[2]", "value": 141, "unit": "%"}, {"measurement": "Number of subjects Ameliorated", "setting": "[3]; [6]", "value": 10}, {"measurement": "Number of subjects Deteriorated", "setting": "[3]; [6]", "value": 2}, {"measurement": "Number of subjects Unchanged", "setting": "[3]; [6]", "value": 4}, {"measurement": "Effect on fine wrinkles under the eye (in words)", "setting": "[3]; two months, human", "value": "significantly ameliorates the fine wrinkles under the eye"}, {"measurement": "Relative water content of the horny layer (in words)", "setting": "[4]", "value": "reduction of the water content of the corneal layer was controlled"}]}
{"smiles": "OC[C@H]1O[C@@H](Oc2ccccc2)[C@H](O)[C@@H](O)[C@@H]1O", "note": "[Glucoside compound (A), reference compound]", "values": [{"measurement": "Inhibition rate (%) of TNF-α release", "setting": "ADAM", "value": 9.5, "unit": "%"}]}
